Structures are written as SMILES.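 Step 1: Grow cells in 96-well plates. Step 2: Expose to compound for 48 hours at 5 concentrations. Step 3: Interpolate endpoints linearly; if unreached, use highest concentration. At the TGI there is no net growth.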

The values that follow come from PubChem BioAssay (NCI).

Among the test systems are A498 renal; ACHN renal; COLO 205 colon; DU-145 prostate; EKVX NSCLC; HCT-15 colon; KM12 colon; M14 melanoma; MCF7 breast; MDA-MB-435; NCI-H522 lung; OVCAR-4 ovarian; RPMI-8226 leukemia; RXF 393 renal; SK-MEL-5 melanoma; SNB-75 CNS; SR leukemia; SW-620 colon; HT29 colon; SF-268 CNS.
Assay in all cases: DTP human tumour cell line panel, 48 h

On to `CC(C)(C)OC(=O)C1CC[C@@H](CC(=O)Oc2ccc([N+](=O)[O-])cc2)N1` (stereo partly specified), for which the TGI in the test with A498 renal, in the test on ACHN renal, in the test with COLO 205 colon, with DU-145 prostate, with EKVX NSCLC and in the test with HCT-15 colon was > 100 µM throughout. Further, the TGI in the test with KM12 colon, with M14 melanoma, in the test with MCF7 breast, in the test with MDA-MB-435, in the test on NCI-H522 lung and with OVCAR-4 ovarian was > 100 µM throughout. The TGI with RPMI-8226 leukemia, in the test on RXF 393 renal, with SK-MEL-5 melanoma, in the test on SNB-75 CNS, in the test with SR leukemia and in the test with SW-620 colon was > 100 µM each time.

On to `COc1cccc(Cc2cc(=O)c3ccc(C)nc3[nH]2)c1`, for which the TGI with A498 renal, in the test with COLO 205 colon, in the test with DU-145 prostate, in the test on EKVX NSCLC, in the test with HCT-15 colon and in the test on HT29 colon was > 100 µM each time. Further, the concentration for total growth inhibition (TGI) is > 100 µM with KM12 colon; > 100 µM with M14 melanoma; > 100 µM in the test on MCF7 breast; > 100 µM in the test with MDA-MB-435; 65 µM with NCI-H522 lung; > 100 µM in the test on RPMI-8226 leukemia. The concentration for total growth inhibition (TGI) in the test with RXF 393 renal, in the test with SF-268 CNS, with SK-MEL-5 melanoma, in the test on SNB-75 CNS, with SR leukemia and with SW-620 colon was > 100 µM in each case.

With `COCn1c(C)c(C)c2c(=O)oc(N(C)C)nc21`, the TGI in the test with A498 renal, in the test on ACHN renal, in the test on COLO 205 colon, with DU-145 prostate, in the test with EKVX NSCLC and in the test on HCT-15 colon was > 100 µM throughout. In addition, the TGI in the test on HT29 colon, with KM12 colon, with M14 melanoma, in the test with MCF7 breast, in the test on MDA-MB-435 and in the test with NCI-H522 lung was > 100 µM throughout. For the same molecule, the TGI with OVCAR-4 ovarian, with RPMI-8226 leukemia, with RXF 393 renal, in the test with SK-MEL-5 melanoma, in the test with SNB-75 CNS and in the test on SR leukemia was > 100 µM throughout. Also, in the test on SW-620 colon, the TGI is > 100 µM.

In the case of `N#Cc1nc(C(CO)N(Cc2ccccc2)C(=O)O)oc1N` (stereo unspecified), the total growth inhibition concentration (TGI) with A498 renal, in the test on ACHN renal, with COLO 205 colon, in the test with DU-145 prostate, in the test with EKVX NSCLC and in the test with HCT-15 colon was > 100 µM each time. For the same molecule, the TGI with HT29 colon, in the test on KM12 colon, in the test with M14 melanoma, with MCF7 breast, in the test on MDA-MB-435 and with NCI-H522 lung was > 100 µM throughout. Besides, the TGI in the test on OVCAR-4 ovarian, in the test with RPMI-8226 leukemia, with RXF 393 renal, in the test with SF-268 CNS, in the test with SK-MEL-5 melanoma and in the test with SNB-75 CNS was > 100 µM throughout. The total growth inhibition concentration (TGI) in the test with SR leukemia is > 100 µM.

For the molecule `Nc1ncnc2c1ncn2[C@H]1CC[C@@H](NO)C1`, the concentration for total growth inhibition (TGI) with A498 renal, in the test on ACHN renal, in the test on COLO 205 colon, in the test on DU-145 prostate, with EKVX NSCLC and with HCT-15 colon was > 100 µM in each case. The TGI with KM12 colon, in the test on M14 melanoma, with MCF7 breast, in the test with MDA-MB-435, in the test with NCI-H522 lung and in the test with OVCAR-4 ovarian was > 100 µM each time. Besides, the concentration for total growth inhibition (TGI) in the test with RPMI-8226 leukemia, in the test on RXF 393 renal, with SF-268 CNS, in the test with SK-MEL-5 melanoma, in the test on SNB-75 CNS and in the test on SR leukemia was > 100 µM in each case. For the same molecule, the total growth inhibition concentration (TGI) in the test on SW-620 colon is > 100 µM.

Turning to `O=C(c1cc2c(c3ccccc13)NCCN=C2C(F)(F)F)C(F)(F)F`, the concentration for total growth inhibition (TGI) is 40.3 µM with A498 renal; 68.3 µM in the test with ACHN renal; > 100 µM in the test on DU-145 prostate; > 100 µM in the test with EKVX NSCLC; > 100 µM in the test with HCT-15 colon; 33.1 µM with HT29 colon. Further, the total growth inhibition concentration (TGI) in the test with KM12 colon was > 100 µM; in the test with M14 melanoma, 79.6 µM; in the test with MCF7 breast, > 100 µM; in the test with MDA-MB-435 it was > 100 µM; in the test on NCI-H522 lung, 72.7 µM; in the test with OVCAR-4 ovarian, > 100 µM. Moreover, the total growth inhibition concentration (TGI) in the test with RPMI-8226 leukemia is 27.4 µM; with RXF 393 renal it was > 100 µM; in the test with SF-268 CNS it was > 100 µM; with SK-MEL-5 melanoma, 31 µM; with SNB-75 CNS, > 100 µM; with SR leukemia it was 21.3 µM. Further, the TGI in the test on SW-620 colon is > 100 µM.

Regarding `C[Si](C)(OCCS(=O)(=O)O)OC(=C1S(=O)(=O)OCCOS1(=O)=O)c1cccc2ccccc12`, the TGI with A498 renal, with ACHN renal, in the test on COLO 205 colon, in the test on DU-145 prostate, with EKVX NSCLC and with HCT-15 colon was > 100 µM in each case. The TGI in the test with HT29 colon, with KM12 colon, with M14 melanoma, in the test on MCF7 breast, in the test with MDA-MB-435 and with OVCAR-4 ovarian was > 100 µM in each case. The TGI in the test with RPMI-8226 leukemia, in the test with RXF 393 renal, in the test with SF-268 CNS, with SK-MEL-5 melanoma, in the test with SNB-75 CNS and with SR leukemia was > 100 µM throughout. Also, the TGI in the test on SW-620 colon was > 100 µM.

A word on the TGI: it is the concentration at which net growth stops. Lower therefore signals greater sensitivity of the cells.
